Measurements as given in patent publication US12503426B2, “Synthetic derivatives of oleoyl-lysophosphatidylinositol (oleoyl-LPI) and uses thereof” (LIPOVEXA SRL, priority 2017, dated 2025).

Tests used:
[1] = test system: ERK; test: ERK phosphorylation by Western blot, Glutag cells; assay type: cell-based, murine; details: time course over 2 hours
Protocol: (§1) When cell cultures reached 80-90%, media were removed and cells were washed twice with 1×PBS. The cells were lysed in 150 μl (for one well of a 6 well plate) of Triton X-100 lysis buffer, containing phosphatase inhibitor cocktail (1:1000) (Sigma Aldrich, UK) and protease inhibitor (1:1000, Sigma Aldrich, UK). Cells were detached with scrapers and lysate were collected and centrifuged at 10,000 rpm, 4° C. for 5 minutes. The supernatant was then transferred to a 1.5 ml microcentrifuge tube and used for protein quantification. Cell lysates were stored at −20° C. for longer storage. All lysates were prepared on ice.
(§2) Non-specific antibody binding was prevented by incubating the nitrocellulose membrane in 5% milk in PBS-0.05% Tween-20 (v/v) for 30 minutes on a rotating plate. The membrane was then washed in PBS-0.05% Tween-20 (v/v) and then incubated with the primary antibody diluted in PBS-0.05% Tween-20 (v/v) on a rotating plate overnight at 4° C. After 24 hours, the membrane was washed 5× for 5 minutes with PBS-0.05% Tween-20 (v/v), and then incubated on a rotating plate with the appropriate secondary antibody for 1 hour at room temperature. […]

[2] = test system: Glutag cells; test: GLP-1 secretion by Glutag cells; assay type: cell-based, murine; details: 2 hours
In short: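 Murine GLUTag and human NCI-H716 L-cells were incubated 2 h in FBS-free DMEM with LPI species, OEA or LPC, with optional 1 h pretreatment with PD98059 (50 μM) or H89 (10 μM). Total medium GLP-1 was measured by ELISA and normalised to basal control secretion.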

[3] = test system: Glutag and NCI-H761 cells; test: Dose response of GLP-1 release at different glucose concentrations; assay type: cell-based; details: 5 mM glucose, 2 hours, percentage of vehicle control
Protocol: Panels A and B show results of dose response of GLP-1 release in different glucose concentration of 5 mM (panel A) and 10 mM (panel B). The dose response of GLP-1 released was normalised of number of cells measured in parallel. Glutag and […] cells were incubated with vehicle alone, oleoyl-LPI, OEA, LPC forskolin (10 μM) and PMA (1 μM) as positive control for 2 hours. Results were normalised as percentage of cell treated with vehicle (control). For panels A and B data are shown as means±SEM of n=3 from independent experiments performed in duplicates. Student t-test: *p<0.05, **P<0.01. Panel C show results of dose response of GLP-1 release in a glucose concentration of 20 mM.
Approximately 80,000 Glutag cells were plated in poly-L-lysine-coated 24-well culture plates and grown to about 80% confluence. NCI-H716 cells were seeded on growth factor reduced Matrigel™ (Becton Dickinson, Bedford, MA) in DMEM medium, supplemented with 10% FBS the day before the experiment. For NCI-H716 cells, approximately 25,000 cells were needed for this secretion experiment in order to have good stimulation with lower basal GLP-1 secretion. In brief, Glutag and NCI-H716 cells were washed twice and then incubated for 2 h with FBS-free DMEM containing 1% (M:C) alone (negative control), 10 μM forskolin as positive control (Sigma-Aldrich), or with different concentrations of Oleoyl-LPI. M:C was used as a solvent to prepare stock solutions of fatty acid derivatives and inhibitors. For secretion experiments, medium and cells were collected separately.
To determine the effect of glucose in oleoyl-LPI induced GLP-1 secretion, the inventors conducted dose-response experiment in the presence of 5 mM and 10 mM glucose in the secretion medium with the results outlined in FIG. 2A and FIG. 2B.

[4] = test system: CREB; test: CREB phosphorylation by Western blot; assay type: cell-based; details: H89 10 μM pre-treatment or oleoyl-LPI in control cells
Protocol: as §1, §2

For “oleoyl-lysophosphatidylinositol [oleoyl-LPI]”, the “p-ERK, time course” value [1] was “increased p-ERK within 10 min and sustained a high level for 120 min”, the GLP-1 secretion ([2]; Glutag cells, normalised as percentage of cells treated with vehicle (control)) was 126±5% and the “effect of down-regulation of GPR55 on GLP-1 secretion” value ([2]; siGPR55 transfected Glutag cells, oleoyl-LPI 20 μM) was “no effect on GLP-1 secretion”. The “GLP-1 secretion in siGPR119-transfected cells” value ([2]; siGPR119 transfected Glutag cells, oleoyl-LPI 20 μM) was “significantly reduced the GLP-1 secretion to the basal level”, the GLP-1 secretion ([3]; 10 μM) was 126±8% and the GLP-1 secretion ([3]; 20 μM) was 223±23%. For the same substance, the GLP-1 secretion ([3]; 50 μM) was 333±45% and the “phosphorylation of CREB” value [4] was “able to stimulate CREB phosphorylation”.
